Results from patent US12370143B2, “Compound or salt thereof and lipid particles” (FUJIFILM Corporation, priority 2018, dated 2025).
Where two headings read alike, the source gives them in different places.

Key:
[1] = tested on: DMS273 cells constantly expressing Luc; assay: Target reporter protein (Luc) knockdown in cell, reporter protein assay; format: cell-based; settings: Homo sapiens, DMS-273
Experimental: The nucleic acid lipid particles prepared by the same method as that in <Preparation of nucleic acid lipid particles> by using the compounds described in Table 3 were evaluated by reporter assay by the following method.
By using pGL4.50 Luc2 (E1310 Promega), DMS273 cells (human small cell lung cancer) (European Collection of Authenticated Cell Cultures) constantly expressing Luc were prepared. RPMI (Gibco) (10% FBS (Gibco), 1% Penicillin-Streptomycin (Gibco), and 200 μg/mL Hygromycin (Wako)) was used as a culture medium. DMS273 cells (2.0×10^3) constantly expressing luciferase (Luc) were seeded in a 96-well plate and cultured in a 5% CO2 incubator for 24 hours, and then the medium was replaced. Then, 10 μL of each of the dispersion liquids of lipid particles diluted with PBS (Gibco) to yield a concentration of 1 to 1,000 nmol/L was added to the 96-well plate, and the final concentration was adjusted to 0.1 to 100 nmol/L (total amount of liquid: 110 μl). Thereafter, the cells were cultured in a 5% CO2 incubator for 24 hours, the medium was then replaced, and the cells were further cultured for 24 hours.
After the viable cell count was determined, the expression amount of Luc was quantified using a Steady Glo assay kit (Promega), and the knockdown efficiency was calculated according to the following equation. Then, the IC50 concentration at which the expression amount of Luc was knocked down to 50% was calculated.

[2] = tested on: Factor VII (FVII) protein; assay: Measurement of Factor VII (FVII) protein in mouse plasma after FVII-siRNA lipid particles; format: in vivo, C57BL6/J mice; settings: 0.1 mg/kg caudal vein, plasma 24 hours after administration, PBS group = 100%
Experimental: (§1) The Factor VII (FVII) protein was measured according to the method described in Nature Biotechnology (2010) 28, 172-176. C57BL6/J mice were randomly grouped (n=3). A dispersion liquid of nucleic acid lipid particles was prepared by the same method as that in <Preparation of nucleic acid lipid particles>, except that FVII-siRNA having the sequence described in Molecular Therapy (2009) 17, p. 878 was used instead of Luc-siRNA. The dispersion liquid was administered to the caudal vein of the mice at a dosage of 0.1 mg/kg. For comparison, PBS at the same volume was administered to the caudal vein of the mice. Twenty four hours after the administration, blood was collected from the caudal vena cava, thereby obtaining plasma. The amount of FVII protein was quantified using the obtained plasma and a Biophen FVII assay kit (Aniara).
The FVII amount in the plasma sample of each individual in the PBS administration group was regarded as 100%, and the ratio of the FVII amount in the plasma sample of each individual to 100% was adopted as a measurement value.

[3] = Particle size of nucleic acid lipid particles (Luc2-siRNA); format: physicochemical; settings: compound/DSPC/cholesterol/DMG-PEG2000 50/10/38.5/1.5
Procedure, shortened: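 Lipid particles formed from oil phase (test lipid/DSPC/cholesterol/DMG-PEG2000, 50/10/38.5/1.5 molar, 20 mmol/L total in ethanol) micromixed 1:3 with Luc2-siRNA in pH 4 acetate buffer (19.7 μmol/L); siRNA/lipid 339 mol/mol, PBS-diluted and dialyzed. Size measured on ELS-Z2 dynamic light scattering.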

[4] = Encapsulation rate of siRNA in nucleic acid lipid particles (Luc2-siRNA); format: physicochemical; settings: compound/DSPC/cholesterol/DMG-PEG2000 50/10/38.5/1.5
Procedure, shortened: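 Encapsulation rate was calculated as (total − outer-phase siRNA)/total ×100. Total siRNA was quantified spectrophotometrically after lipid-dissolving ethanol precipitation, and unencapsulated siRNA by RiboGreen in TE (ex 485/em 535 nm). The particles were test lipid/DSPC/cholesterol/DMG-PEG2000 at 50/10/38.5/1.5, formed by microfluidic mixing with Luc2-siRNA at pH 4 and dialyzed against PBS.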

[5] = Particle size of nucleic acid lipid particles (FVII-siRNA); format: physicochemical
Experimental: The compounds described in Table 2, L-α-distearoylphosphatidylcholine (trade name: COATSOME® MC-8080; NOF corporation), cholesterol (trade name: Choesterol HP; NIPPON FINE CHEMICAL CO., LTD.), and 1,2-dimyristoyl-rac-glycero-3-(methylpolyoxyethylene 2000) (hereinafter, called DMG-PEG2000) (trade name: SUNBRIGHT® GM-020; NOF corporation) were dissolved in ethanol at a molar ratio of 50/10/38.5/1.5 such that the total lipid concentration became 20 mmol/L, thereby obtaining an oil phase.
An aqueous nucleic acid solution obtained by dissolving 5 mg of Luc2-siRNA having the sequence described in Biomacromolecules (2013) 14, p. 3905 in 1 mL of sterile water was diluted with 10 mmol/L acetate buffer having a pH 4 such that the nucleic acid concentration became 19.7 μmol/L, thereby obtaining a water phase. Then, the water phase and the oil phase were mixed together by a micromixer (see JP5288254B) using a syringe pump such that the volume ratio of water phase:oil phase became 3:1 (final ratio of siRNA/lipid=339 (mol/mol)), and the mixed solution was diluted 2× with PBS, thereby obtaining a dispersion liquid of nucleic acid lipid particles. The dispersion liquid was dialyzed (Slide-A-Lyzer G2, MWCO: 10 kD, Thermo Fisher Scientific) using a phosphate buffered saline such that ethanol was removed, thereby obtaining nucleic acid lipid particles.
The particle size of the nucleic acid lipid particles was measured by the same method as that in <Preparation of lipid particles>.
as §1

[6] = Nucleic acid encapsulation rate of nucleic acid lipid particles (FVII-siRNA); format: physicochemical
Experimental: A 3 mol/L aqueous sodium acetate solution (30 μL) and 9 μL of glycogen were added to 60 μL of the lipid particles retaining nucleic acids, and then 1.5 mL of ethanol was added thereto such that only the nucleic acids were precipitated while the lipid was dissolved. Then, the supernatant was removed by centrifugation. After the precipitates were air-dried for 15 minutes or longer, water was added thereto such that the precipitates were redissolved, and the concentration thereof was measured using Nanodrop NF1000 (Thermo Fisher Scientific), thereby quantifying the total nucleic acid concentration.
The nucleic acid concentration was quantified using a Quant-iT RiboGreen RNA Assay Kit (Thermo Fisher Scientific) according to the protocol. First, a 20×TE buffer included in the above kit was diluted with water, thereby obtaining a 1×TE buffer. TE represents Tris/EDTA (ethylenediaminetetraacetic acid). In order to quantify only the nucleic acid in the outer water phase, the dispersion liquid of lipid particles retaining nucleic acids was diluted 10,000× with the 1×TE buffer.
The 10,000× diluted dispersion liquid of lipid particles (100 μL) was put in a 96-well plate, then 100 μL of a RiboGreen reagent (reagent included in the Quanti-iT Ribogreen RNA Assay Kit described above) diluted 2000× with the 1×TE buffer was added to a sample, and fluorescence (excitation wavelength: 485 nm, fluorescence wavelength: 535 nm) was measured using a plate reader Infinit EF200 (TECAN), thereby quantifying the nucleic acid concentration in the outer water phase.
By using the total nucleic acid concentration obtained through the above steps and the quantified nucleic acid concentration in the outer water phase, the nucleic acid encapsulation rate of the nucleic acid lipid particles was calculated according to the following Equation. Nucleic acid encapsulation rate (%)=(total nucleic acid concentration−nucleic acid concentration in outer water phase)/total nucleic acid concentration×100 The results are shown in Table 2.
as §1

[7] = Luc2-siRNA lipid particles using the compound, siRNA 0.1 to 100 nmol/L, concentration at which Luc expression is knocked down to 50%, read-out: IC50

Row | IC50 [1, 7] | Structure (SMILES) | Relative amount of FVII protein (%) [2] | also measured
1 |  | CCCCCCCCC(CCCCCC)C(=O)OCCCCC(CCCCOC(=O)C(CCCCCC)CCCCCCCC)OC(=O)OCCN(CC)CCN(CC)CC (centres unmarked) [Example 73, 5-(((2-((2-(Diethylamino)ethyl)(ethyl)amino)ethoxy)carbonyl)oxy)nonane-1,9-diylbis(2-hexyldecanoate)] | 1% | IC50 [1]: 24 nM
2 |  | CCCCCCCC(=O)OCCN(CCOC(=O)OC(CCCCCC)CCCC(=O)OCC(CCCC)CCCCCC)CCN(CC)CC (centres unmarked) [Example 108, 2-Butyloctyl 3-ethyl-12-hexyl-6-(2-(octanoyloxy)ethyl)-10-oxo-9,11-dioxa-3,6-diazahexadecan-16-oate] | 3% | Particle size (nm) [3]: 78.7 nm; Nucleic acid encapsulation rate [4]: 81%; Particle size (nm) [5]: 78.8 nm; Nucleic acid encapsulation rate [6]: 90%
3 |  | CCCCCCCCC(CCCCCC)C(=O)OCCCCCC(CCCCCOC(=O)C(CCCCCC)CCCCCCCC)OC(=O)OCCN(CC)CCN(CC)CC (centres unmarked) [Example 71, 6-(((2-((2-(Diethylamino)ethyl)(ethyl)amino)ethoxy)carbonyl)oxy)undecane-1,11-diylbis(2-hexyldecanoate)] | 4% | 
4 | 43 nM | CCCCCCCC/C=C\CCCCCCCC(=O)OCCCCCCC(CCCCCCOC(=O)CCCCCCC/C=C\CCCCCCCC)OC(=O)OCCN(CCN(CC)CC)C(C)C [Example 48, 7-(((2-((2-(Diethylamino)ethyl)(isopropyl)amino)ethoxy)carbonyl)oxy)tridecane-1,13-diyldioleate] | 20% | 
5 |  | CCN(CC)CCN(CC)CCOC(=O)OC(CCCCCCOC(=O)C(CCC(C)CC(C)(C)C)C(C)CC(C)(C)C)CCCCCCOC(=O)C(CCC(C)CC(C)(C)C)C(C)CC(C)(C)C (centres unmarked) [Example 59, 7-(((2-((2-(Diethylamino)ethyl)(ethyl)amino)ethoxy)carbonyl)oxy)tridecane-1,13-diylbis(2-(4,4-dimethylpentan-2-yl)-5,7,7-trimethyloctanoate)] | 10% | 
6 | 14 nM | CCCCCCCC/C=C\CCCCCCCC(=O)OCCCCCCC(CCCCCCOC(=O)CCCCCCC/C=C\CCCCCCCC)OC(=O)OCCN(CC)CCN(CC)CC [Example 41, 7-(((2-((2-(diethylamino)ethyl)(ethyl)amino)ethoxy)carbonyl)oxy)tridecane-1,13-diyldioleate] | 18% | 
7 |  | CCCCCCCC(CCCCCCC)CC(=O)OCCCCCCC(CCCCCCOC(=O)CC(CCCCCCC)CCCCCCC)OC(=O)OCCN(CC)CCN(CC)CC [Example 70, 7-(((2-((2-(diethylamino)ethyl)(ethyl)amino)ethoxy)carbonyl)oxy)tridecane-1,13-diylbis(3-heptyldecanoate)] | 6% | IC50 [1]: 24 nM
8 |  | CCCCCCCCC(CCCCCCCC)C(=O)OCCCCCCC(CCCCCCOC(=O)C(CCCCCCCC)CCCCCCCC)OC(=O)OCCN(CC)CCN(CC)CC [Example 74, 7-(((2-((2-(Diethylamino)ethyl)(ethyl)amino)ethoxy)carbonyl)oxy)tridecane-1,13-diylbis(2-octyldecanoate)] | 4% | IC50 [1]: 22 nM
9 |  | CCCCCCCCCC(CCCCCCC)C(=O)OCCCCCCC(CCCCCCOC(=O)C(CCCCCCC)CCCCCCCCC)OC(=O)OCCN(CC)CCN(CC)CC (centres unmarked) [Example 58, 7-(((2-((2-(Diethylamino)ethyl)(ethyl)amino)ethoxy)carbonyl)oxy)tridecane-1,13-diylbis(2-heptylundecanoate)] | 14% | 
10 |  | CCCCCCCCC(CCCCCC)C(=O)OCCCCCCC(CCCCCCOC(=O)C(CCCCCC)CCCCCCCC)OC(=O)OCCN(CCN(CC)CC)C(C)C (centres unmarked) [Example 62, 7-(((2-((2-(Diethylamino)ethyl)(isopropyl)amino)ethoxy)carbonyl)oxy)tridecane-1,13-diylbis(2-hexyldecanoate)] | 3% | 
11 | 22 nM | CCCCCCC(CCCCCC)CC(=O)OCCCCCCC(CCCCCCOC(=O)CC(CCCCCC)CCCCCC)OC(=O)OCCN(CC)CCN(CC)CC [Example 67, 7-(((2-((2-(Diethylamino)ethyl)(ethyl)amino)ethoxy)carbonyl)oxy)tridecane-1,13-diylbis(3-hexylnonanoate)] | 5% | 
12 | 19 nM | CCCCCCCCC(CCCCCC)C(=O)OCCCCCCC(CCCCCCOC(=O)C(CCCCCC)CCCCCCCC)OC(=O)OCCN(CC)CCN(CC)CC (centres unmarked) [Example 56, 7-(((2-((2-(Diethylamino)ethyl)(ethyl)amino)ethoxy)carbonyl)oxy)tridecane-1,13-diylbis(2-hexyldecanoate)] | 3% | 
13 | 18 nM | CCCCCCCC(CCCCCCC)C(=O)OCCCCCCC(CCCCCCOC(=O)C(CCCCCCC)CCCCCCC)OC(=O)OCCN(CC)CCN(CC)CC [Example 76, 7-(((2-((2-(Diethylamino)ethyl)(ethyl)amino)ethoxy)carbonyl)oxy)tridecane-1,13-diylbis(2-heptylnonanoate)] | 4% | 
14 |  | CCCCCCCCC(CCCCCCCC)CC(=O)OCCCCCCC(CCCCCCOC(=O)CC(CCCCCCCC)CCCCCCCC)OC(=O)OCCN(CC)CCN(CC)CC [Example 65, 7-(((2-((2-(Diethylamino)ethyl)(ethyl)amino)ethoxy)carbonyl)oxy)tridecane-1,13-diylbis(3-octylundecanoate)] | 11% | 
